According to article PMC11676875, “In Vitro Screening of an In-House Library of Structurally Distinct Chemotypes Towards the Identification of Novel SARS-CoV-2 Inhibitors” (Pharmaceuticals, 2024):
Read-outs that look alike come from different tables or passages of the source.

How the values were obtained:
[1] = tested on: SARS-CoV-2; test: microbe, parasite or virus in culture; assay type: cell-based, SARS-CoV-2 B1.1 lineage; conditions: for IC50: Severe acute respiratory syndrome coronavirus 2, Vero C1008, 72 h, read-out: SARS-CoV-2 IC50
[2] = target: α4β2 subtype of the nicotinic receptor; set-up: method as in PMID 12088062; conditions: cited from earlier work
[3] = in vitro; conditions: monkey
[4] = tested on: SARS-CoV-2; conditions: reference compound; cited from earlier work
[5] = tested on: SARS-CoV-2; set-up: method as in PMID 37367224; conditions: lung epithelium cell line; cited from earlier work
[6] = tested on: SARS-CoV-2; conditions: read-out: IC50 against SARS-CoV-2; cited from earlier work
[7] = tested on: Dengue virus type 2; test: Activity against Dengue virus type 2 (unpublished results); assay type: cell-based
[8] = set-up: method as in PMID 29194347, PMID 37238706; conditions: cited from earlier work
[9] = mice, i.p.; cited from earlier work
[10] = microsomes and hepatocytes of different species; cited from earlier work
[11] = set-up: method as in PMID 34116325; conditions: cited from earlier work
[12] = non-human primates; cited from earlier work

SMILES: O=c1cccc2n1CC1CC2CN(C(=S)NC2CCCCC2)C1 (stereo not shown) [Compound 23]
- IC50 [1]: 95.6 µM
- Ki [2]: 2.3 µM
- CC50 [3]: > 100 µM

SMILES: CC(C)/N=c1\cc2n(-c3ccc(Cl)cc3)c3ccccc3nc-2cc1Nc1ccc(Cl)cc1 [clofazimine]
- IC50 [4]: 0.31 µM
- reduction in viral RNA load [5]: 25%

SMILES: Clc1ccc(-n2c3cc(=NCCCN4CCCCC4)c(Nc4cccnc4)cc-3nc3ccccc32)cc1 [Compound 9]
- SAR analysis summary of anti-SARS-CoV-2 activity [1]: Inactive/ Cytotoxic
- CC50 [3]: 1.88 µM

SMILES: CCN(CC)CCCn1c(Cn2nnc3ccccc32)nc2cc(C(C)=NNC(N)=S)ccc21 [Compound 15, 2-(1-{2-[(1H-Benzo[d][1,2, 3]triazol-1-yl)methyl]-1-[3-(N,N-diethylamino)propyl]-1H-benzo-[d]imidazol-5-yl}ethylidene)hydrazine-1-carbothioamide]
- IC50 [1]: 14.9 µM
- CC50 [3]: 67.1 µM

SMILES: Cc1ccc2c(c1)nc(Cn1nnc3ccccc31)n2CC[C@@H]1CCCN2CCCC[C@H]12 [Compound 19]
- IC50 [1]: 15.3 µM
- CC50 [3]: 76.3 µM

SMILES: Cc1ccc(Nc2cc3nc4ccccc4n(-c4ccc(C)cc4)c-3cc2=NCC2CCCN3CCCCC23)cc1 (stereo not shown) [Compound 2]
- IC50 [1]: 1.5 µM
- CC50 [3]: 2.81 µM

SMILES: CCN(CCO)CCCC(C)Nc1ccnc2cc(Cl)ccc12 (stereo not shown) [hydroxychloroquine]
- IC50 [6]: 0.72 µM

SMILES: CC(=O)Oc1ccccc1C(=O)Oc1ccc(-c2cc(=S)ss2)cc1 [Compound 24]
- activity against SARS-CoV-2 [1]: no activity
- IC50 [1]: > 10 µM
- CC50 [3]: 32.9 µM

SMILES: CCN(CC)CCCn1c(Cc2ccccc2)nc2cc(C(C)=NNC(N)=S)ccc21 [Compound 13]
- IC50 [1]: 20 µM
- CC50 [3]: 96.1 µM

SMILES: CCN(CC)CCCn1c(Cc2ccccc2)nc2cc(/C(C)=N\NC(N)=O)ccc21 [Compound 12]
- SAR analysis summary of anti-SARS-CoV-2 activity [1]: Inactive/ Cytotoxic
- IC50 [1]: > 100 µM
- CC50 [3]: > 100 µM

SMILES: Clc1ccc(Nc2cc3nc4ccccc4n(-c4ccc(Cl)cc4)c-3cc2=NCC23CCCN2CCC3)cc1 [Compound 6]
- SAR analysis summary of anti-SARS-CoV-2 activity [1]: Inactive/ Cytotoxic
- IC50 [1]: > 3 µM
- CC50 [3]: 5.58 µM

SMILES: CN1CCCC1=CN=Nc1cccc(Br)c1 [Compound 22]
- activity against SARS-CoV-2 [1]: no activity
- IC50 [1]: > 20 µM
- IC50 [7]: 24 µM
- CC50 [3]: 26.8 µM

SMILES: Clc1ccc2c(NC[C@@H]3CCCN4CCCC[C@H]34)ccnc2c1 [Compound 10]
- IC50 [1]: 2.2 µM
- oral bioavailability [8]: excellent
- volume of distribution [8]: high
- CC50 [3]: 44 µM
- maximum tolerated dose, MTD [9]: greater than 100 mg/Kg
- metabolic stability [10]: good

SMILES: Fc1ccc(Nc2cc3nc4ccccc4n(-c4ccc(F)cc4)c-3cc2=NCCCCC23CCCCN2CCCC3)cc1 [Compound 4]
- SAR analysis summary of anti-SARS-CoV-2 activity [1]: Inactive/ Cytotoxic
- IC50 [1]: > 1 µM
- CC50 [3]: 2.19 µM

SMILES: Oc1ccc(-n2nc3ccc(C(F)(F)F)cc3n2)cc1 [Compound 21]
- activity against SARS-CoV-2 [1]: no activity
- IC50 [1]: > 20 µM
- IC50 [7]: 17 µM
- CC50 [3]: 25.4 µM

SMILES: c1ccc(Nc2cc3nc4ccccc4n(-c4ccccc4)c-3cc2=NCCCCC23CCCCN2CCCC3)cc1 [Compound 3]
- IC50 [1]: 4 µM
- CC50 [3]: 10.5 µM

SMILES: Clc1ccc(-n2c3cc(=NCCN4CCOCC4)c(Nc4cccnc4)cc-3nc3ccccc32)cc1 [Compound 8]
- SAR analysis summary of anti-SARS-CoV-2 activity [1]: Inactive/ Cytotoxic
- CC50 [3]: 1.74 µM

SMILES: Clc1ccc(Nc2cc3nc4ccccc4n(-c4ccc(Cl)cc4)c-3cc2=NCC2CCCN3CCCCC23)cc1 (stereo not shown) [Compound 1]
- SAR analysis summary of anti-SARS-CoV-2 activity [1]: Inactive/ Cytotoxic
- IC50 [1]: > 2 µM
- CC50 [3]: 3.14 µM

SMILES: CCN(CC)CCCC(C)Nc1ccnc2cc(Cl)ccc12 (stereo not shown) [CQ, chloroquine, reference compound]
- IC50 [1]: 8.5 µM
- CC50 [3]: 96.3 µM

SMILES: CCN(CC)CCCn1c(Cn2nnc3ccccc32)nc2cc(Cl)ccc21 [Compound 18]
- IC50 [1]: 28.1 µM
- CC50 [3]: 107 µM

SMILES: CN1CCN(CCN=c2cc3n(-c4ccc(Cl)cc4)c4ccccc4nc-3cc2Nc2cccnc2)CC1 [Compound 7]
- SAR analysis summary of anti-SARS-CoV-2 activity [1]: Inactive/ Cytotoxic
- inhibition at 1 µM ([1]; Severe acute respiratory syndrome coronavirus 2, Vero C1008, read-out: % inhibition of viral replication): 20.5%
- water solubility [11]: highly water soluble
- CC50 [3]: 2.62 µM

SMILES: Clc1ccc2c(NCC34CCCN3CCC4)ccnc2c1 [Compound 11]
- IC50 [1]: 3.7 µM
- oral bioavailability [8]: excellent
- volume of distribution [8]: high
- CC50 [3]: 74.5 µM
- maximum tolerated dose, MTD [9]: greater than 100 mg/Kg
- oral MTD [12]: 50 mg/kg/day
- metabolic stability [10]: good

SMILES: Clc1ccc2c(c1)nc(Cn1nnc3ccccc31)n2CC[C@@H]1CCCN2CCCC[C@H]12 [Compound 20]
- IC50 [1]: 6.95 µM
- CC50 [3]: 19.4 µM

SMILES: c1ccc(Nc2cc3nc4ccccc4n(-c4ccccc4)c-3cc2=NCC23CCCN2CCC3)cc1 [Compound 5]
- SAR analysis summary of anti-SARS-CoV-2 activity [1]: Inactive/ Cytotoxic
- IC50 [1]: > 2 µM
- CC50 [3]: 3.2 µM

SMILES: CC(=NNC(N)=S)c1ccc2c(c1)nc(Cc1ccccc1)n2C[C@@H]1CCCN2CCCC[C@H]12 [Compound 14, 2-(1-{2-Benzyl-1-[((1S,9aR)-octahydro-2H-quinolizin-1-yl)methyl]-1H-benzo[d]imidazol-5-yl}-ethylidene)hydrazine-1-carbothioamide]
- IC50 [1]: 12.2 µM
- CC50 [3]: 70 µM

SMILES: CC(=O)/C=C(/C)Nc1cccc2c3c([nH]c12)CCCC3 [Compound 25]
- IC50 [1]: 90.1 µM
- CC50 [3]: > 100 µM
